In PMC5218480 (PLoS ONE, 2017):

System: MV-4-11 cells
Test: Gene expression microarray analysis (Affymetrix PrimeView) and GSEA
Assay type: cell-based, human
Design: RFU PODN (11730768_x_at) / Fold change /veh PODN (11730768_x_at) / RFU LINC00158 (11744669_a_at) / Fold change /veh LINC00158 (11744669_a_at) / RFU DUSP10 (11751237_a_at) / Fold change /veh DUSP10 (11751237_a_at) / RFU ID3 (11757404_x_at) / Fold change /veh ID3 (11757404_x_at) / RFU PLEKHG5 (11737974_s_at) / Fold change /veh PLEKHG5 (11737974_s_at) / RFU LRRC4B (11730491_at) / Fold change /veh LRRC4B (11730491_at) / RFU GIMAP4 (11747438_a_at) / Fold change /veh GIMAP4 (11747438_a_at) / RFU KRT8 (11758183_x_at) / Fold change /veh KRT8 (11758183_x_at) / RFU CNN1 (11734310_a_at) / Fold change /veh CNN1 (11734310_a_at) / RFU VPS37D (11726825_at) / Fold change /veh VPS37D (11726825_at) / RFU C10orf10 (11716522_x_at) / Fold change /veh C10orf10 (11716522_x_at) / RFU KIR2DL2 /// KIR2DL4 /// KIR2DL5A /// KIR2DL5B /// KIR2DS1 /// KIR2DS2 /// KIR2DS3 /// KIR2DS4 /// KIR3DL3 /// KIR3DL3 /// KIR3DS1 (11738374_at) / Fold change /veh KIR2DL2 /// KIR2DL4 /// KIR2DL5A /// KIR2DL5B /// KIR2DS1 /// KIR2DS2 /// KIR2DS3 /// KIR2DS4 /// KIR3DL3 /// KIR3DL3 /// KIR3DS1 (11738374_at) / RFU C1QL1 (11718748_at) / Fold change /veh C1QL1 (11718748_at) / RFU TMPRSS4 (11747572_a_at) / Fold change /veh TMPRSS4 (11747572_a_at) / RFU HAMP (11756126_x_at) / Fold change /veh HAMP (11756126_x_at) / RFU RNFT2 (11725882_a_at) / Fold change /veh RNFT2 (11725882_a_at) / RFU NR4A2 (11747474_a_at) / Fold change /veh NR4A2 (11747474_a_at) / RFU ABCC12 (11746883_a_at) / Fold change /veh ABCC12 (11746883_a_at) / RFU TMEM136 (11760407_x_at) / Fold change /veh TMEM136 (11760407_x_at) / RFU CLDN22 /// WWC2 (11732394_at) / Fold change /veh CLDN22 /// WWC2 (11732394_at) / RFU HLA-DPB1 (11760878_x_at) / Fold change /veh HLA-DPB1 (11760878_x_at) / RFU SPINT1 (11716480_a_at) / Fold change /veh SPINT1 (11716480_a_at) / RFU GAP43 (11754022_s_at) / Fold change /veh GAP43 (11754022_s_at) / RFU A4GNT (11735810_at) / Fold change /veh A4GNT (11735810_at) / RFU PRB3 (11715151_x_at) / Fold change /veh PRB3 (11715151_x_at) / RFU TUBB4B (11761932_at) / Fold change /veh TUBB4B (11761932_at) / RFU CAPN14 (11732068_a_at) / Fold change /veh CAPN14 (11732068_a_at) / RFU TMCC2 (11721928_a_at) / Fold change /veh TMCC2 (11721928_a_at) / RFU IRGQ (11745062_a_at) / Fold change /veh IRGQ (11745062_a_at) / RFU FAM174B (11720279_a_at) / Fold change /veh FAM174B (11720279_a_at) / RFU TMPRSS4 (11748680_a_at) / Fold change /veh TMPRSS4 (11748680_a_at) / RFU FAM212B (11763350_a_at) / Fold change /veh FAM212B (11763350_a_at) / RFU PLEKHG5 (11743358_a_at) / Fold change /veh PLEKHG5 (11743358_a_at) / RFU ZSCAN30 (11745921_a_at) / Fold change /veh ZSCAN30 (11745921_a_at) / RFU CMKLR1 (11741424_a_at) / Fold change /veh CMKLR1 (11741424_a_at) / RFU LOC101060620 /// MAPK8IP1 (11723275_at) / Fold change /veh LOC101060620 /// MAPK8IP1 (11723275_at) / RFU SPTSSB (11747773_x_at) / Fold change /veh SPTSSB (11747773_x_at) / RFU PRSS12 (11739890_at) / Fold change /veh PRSS12 (11739890_at) / RFU BIN1 (11741810_x_at) / Fold change /veh BIN1 (11741810_x_at) / RFU WNT11 (11732464_a_at) / Fold change /veh WNT11 (11732464_a_at) / RFU C10orf10 (11716521_a_at) / Fold change /veh C10orf10 (11716521_a_at) / RFU C5orf56 (11738089_at) / Fold change /veh C5orf56 (11738089_at) / RFU CYB561 (11721691_x_at) / Fold change /veh CYB561 (11721691_x_at) / RFU ANKRD19P (11752326_a_at) / Fold change /veh ANKRD19P (11752326_a_at) / RFU OR2T12 /// OR2T33 /// OR2T8 (11738714_s_at) / Fold change /veh OR2T12 /// OR2T33 /// OR2T8 (11738714_s_at) / RFU VCAN (11748164_a_at) / Fold change /veh VCAN (11748164_a_at) / RFU JSRP1 (11732532_at) / Fold change /veh JSRP1 (11732532_at) / RFU KRTAP10-11 (11738290_x_at) / Fold change /veh KRTAP10-11 (11738290_x_at) / RFU MYO3A (11730013_a_at) / Fold change /veh MYO3A (11730013_a_at) / RFU EBF3 (11725865_a_at) / Fold change /veh EBF3 (11725865_a_at) / RFU CAMK2N1 (11719241_x_at) / Fold change /veh CAMK2N1 (11719241_x_at) / RFU C5orf56 (11738088_a_at) / Fold change /veh C5orf56 (11738088_a_at) / RFU OLFML3 (11715873_a_at) / Fold change /veh OLFML3 (11715873_a_at) / RFU LOC100653217 /// NTM (11731650_a_at) / Fold change /veh LOC100653217 /// NTM (11731650_a_at) / RFU MAPK11 (11762145_a_at) / Fold change /veh MAPK11 (11762145_a_at) / RFU FIZ1 (11724087_x_at) / Fold change /veh FIZ1 (11724087_x_at) / RFU OASL (11726364_x_at) / Fold change /veh OASL (11726364_x_at) / RFU SOX15 (11748057_x_at) / Fold change /veh SOX15 (11748057_x_at) / RFU CD79A (11719716_a_at) / Fold change /veh CD79A (11719716_a_at) / RFU HIST1H1D (11736915_at) / Fold change /veh HIST1H1D (11736915_at) / RFU CASKIN2 (11723855_a_at) / Fold change /veh CASKIN2 (11723855_a_at) / RFU LOC730098 (11760151_x_at) / Fold change /veh LOC730098 (11760151_x_at) / RFU OR4N2 (11742367_at) / Fold change /veh OR4N2 (11742367_at) / RFU PRRT2 (11749266_a_at) / Fold change /veh PRRT2 (11749266_a_at) / RFU SNX32 (11753110_a_at) / Fold change /veh SNX32 (11753110_a_at) / RFU CDHR5 (11726645_a_at) / Fold change /veh CDHR5 (11726645_a_at) / RFU RCAN1 (11760418_a_at) / Fold change /veh RCAN1 (11760418_a_at) / RFU FAM167A (11723789_a_at) / Fold change /veh FAM167A (11723789_a_at) / RFU FAM26E (11764081_at) / Fold change /veh FAM26E (11764081_at) / RFU ISYNA1 (11749810_s_at) / Fold change /veh ISYNA1 (11749810_s_at) / RFU ACY1 (11761880_at) / Fold change /veh ACY1 (11761880_at) / RFU 11764098_at / Fold change /veh 11764098_at / RFU SAMD14 (11745864_x_at) / Fold change /veh SAMD14 (11745864_x_at) / RFU NPB (11741838_a_at) / Fold change /veh NPB (11741838_a_at) / RFU TMPRSS6 (11731388_a_at) / Fold change /veh TMPRSS6 (11731388_a_at) / RFU KRTAP10-2 (11738614_at) / Fold change /veh KRTAP10-2 (11738614_at) / RFU ARHGAP8 /// PRR5-ARHGAP8 (11727945_x_at) / Fold change /veh ARHGAP8 /// PRR5-ARHGAP8 (11727945_x_at) / RFU KRTAP5-7 /// NADSYN1 (11734609_at) / Fold change /veh KRTAP5-7 /// NADSYN1 (11734609_at) / RFU RASL12 (11751679_a_at) / Fold change /veh RASL12 (11751679_a_at) / RFU CDKN2B (11736163_a_at) / Fold change /veh CDKN2B (11736163_a_at) / RFU PRF1 (11729649_at) / Fold change /veh PRF1 (11729649_at) / RFU, ZNF638 /// ZNF638-IT1 / Fold change vs veh, ZNF638 /// ZNF638-IT1 / RFU, PANK3 / Fold change vs veh, PANK3 / RFU, SH3YL1 / Fold change vs veh, SH3YL1 / RFU, ZEB2 / Fold change vs veh, ZEB2 / RFU, NRIP1 / Fold change vs veh, NRIP1 / RFU, PTTG1IP / Fold change vs veh, PTTG1IP / RFU, CAPN2 / Fold change vs veh, CAPN2 / RFU, MED14 / Fold change vs veh, MED14 / RFU, SNORA58 / Fold change vs veh, SNORA58 / RFU, C1orf63 / Fold change vs veh, C1orf63 / RFU, LRRFIP1 / Fold change vs veh, LRRFIP1 / RFU, NDUFAF7 / Fold change vs veh, NDUFAF7 / RFU, SLC12A2 / Fold change vs veh, SLC12A2 / RFU, IBTK / Fold change vs veh, IBTK / RFU, ESF1 / Fold change vs veh, ESF1 / Fold change vs veh, TMEM50B / RFU, TAOK1 / Fold change vs veh, TAOK1 / RFU, ACBD3 / Fold change vs veh, ACBD3 / RFU, TMA16 / Fold change vs veh, TMA16 / RFU, RWDD3 / Fold change vs veh, RWDD3 / RFU, BCAT1 / Fold change vs veh, BCAT1 / RFU, EDEM3 / Fold change vs veh, EDEM3 / RFU, TMEM33 / Fold change vs veh, TMEM33 / RFU, WDR75 / Fold change vs veh, WDR75 / RFU, AHCTF1 / Fold change vs veh, AHCTF1 / RFU, TFRC / Fold change vs veh, TFRC / RFU, ZDHHC17 / Fold change vs veh, ZDHHC17 / RFU, NOM1 / Fold change vs veh, NOM1 / RFU, ARL8B / Fold change vs veh, ARL8B / RFU, ZBTB11 / Fold change vs veh, ZBTB11 / RFU, TAMM41 / Fold change vs veh, TAMM41 / RFU, KIAA1704 /// LOC100996395 / Fold change vs veh, KIAA1704 /// LOC100996395 / RFU, ING1 / Fold change vs veh, ING1 / RFU, TRMT61B / Fold change vs veh, TRMT61B / RFU, FUBP3 / Fold change vs veh, FUBP3 / RFU, TP53 / Fold change vs veh, TP53 / RFU, TNKS2 / Fold change vs veh, TNKS2 / RFU, ZFP14 / Fold change vs veh, ZFP14 / RFU, ACTR2 / Fold change vs veh, ACTR2 / RFU, PPP3R1 / Fold change vs veh, PPP3R1 / RFU, PIK3R1 / Fold change vs veh, PIK3R1 / RFU, HNRNPA1 / Fold change vs veh, HNRNPA1 / RFU, RNF170 / Fold change vs veh, RNF170 / RFU, ZNF28 / Fold change vs veh, ZNF28 / RFU, RNGTT / Fold change vs veh, RNGTT / RFU, OGT / Fold change vs veh, OGT / RFU, BRD1 / Fold change vs veh, BRD1 / RFU, MARS / Fold change vs veh, MARS / RFU, ZNF655 / Fold change vs veh, ZNF655 / RFU, FAHD1 / Fold change vs veh, FAHD1 / RFU, BDP1 / Fold change vs veh, BDP1 / RFU, LRRCC1 / Fold change vs veh, LRRCC1 / RFU, ARID1A / Fold change vs veh, ARID1A / RFU, ZNF146 / Fold change vs veh, ZNF146 / RFU, ZNF330 / Fold change vs veh, ZNF330 / RFU, GPN3 / Fold change vs veh, GPN3 / RFU, C9orf123 / Fold change vs veh, C9orf123 / RFU, N4BP2L2 / Fold change vs veh, N4BP2L2 / RFU, ARFIP1 / Fold change vs veh, ARFIP1 / RFU, FAM179B / Fold change vs veh, FAM179B / RFU, BCL10 / Fold change vs veh, BCL10 / RFU, UHRF1BP1L / Fold change vs veh, UHRF1BP1L / RFU, BET1 / Fold change vs veh, BET1 / RFU, CNOT2 / Fold change vs veh, CNOT2 / RFU, ZNF268 / Fold change vs veh, ZNF268 / Fold change vs veh, ZNF507 / RFU, DGCR2 / Fold change vs veh, DGCR2 / RFU, WDSUB1 / Fold change vs veh, WDSUB1 / Fold change vs veh, HSP90B1 /// MIR3652 / RFU, ADSS / Fold change vs veh, ADSS / RFU, GK / Fold change vs veh, GK / RFU, ZNF148 / Fold change vs veh, ZNF148 / RFU, TAF9 / Fold change vs veh, TAF9 / RFU, SLC1A5 / Fold change vs veh, SLC1A5 / RFU, SLMO2 / Fold change vs veh, SLMO2 / RFU, ABCC4 / Fold change vs veh, ABCC4 / RFU, LOC101060439 /// RAP1B / Fold change vs veh, LOC101060439 /// RAP1B / RFU, RFX7 / Fold change vs veh, RFX7 / RFU, GTPBP10 / Fold change vs veh, GTPBP10 / RFU, CNEP1R1 / Fold change vs veh, CNEP1R1 / RFU, BIVM-ERCC5 /// ERCC5 / Fold change vs veh, BIVM-ERCC5 /// ERCC5 / RFU, ILF3 / Fold change vs veh, ILF3 / RFU 11762660_at / Fold change /veh 11762660_at / RFU VCAN (11757783_s_at) / Fold change /veh VCAN (11757783_s_at) / RFU DDX43 (11728927_at) / Fold change /veh DDX43 (11728927_at) / RFU KRT8 (11758188_x_at) / Fold change /veh KRT8 (11758188_x_at) / RFU NKD1 (11759106_at) / Fold change /veh NKD1 (11759106_at) / RFU SRD5A1 (11742802_a_at) / Fold change /veh SRD5A1 (11742802_a_at) / RFU TPSAB1 /// TPSB2 (11721975_s_at) / Fold change /veh TPSAB1 /// TPSB2 (11721975_s_at) / RFU GSTM3 (11746129_a_at) / Fold change /veh GSTM3 (11746129_a_at) / RFU IL23R (11737362_x_at) / Fold change /veh IL23R (11737362_x_at) / RFU TMEM51 (11727254_a_at) / Fold change /veh TMEM51 (11727254_a_at) / RFU PIWIL2 (11732686_x_at) / Fold change /veh PIWIL2 (11732686_x_at) / RFU ORM1 (11744905_x_at) / Fold change /veh ORM1 (11744905_x_at) / RFU CCDC152 (11743942_at) / Fold change /veh CCDC152 (11743942_at) / RFU ECM1 (11717891_a_at) / Fold change /veh ECM1 (11717891_a_at) / RFU IL23R (11748794_a_at) / Fold change /veh IL23R (11748794_a_at) / RFU TNFAIP8L3 (11732012_x_at) / Fold change /veh TNFAIP8L3 (11732012_x_at) / RFU MBOAT4 (11741988_at) / Fold change /veh MBOAT4 (11741988_at) / RFU 11764193_at / Fold change /veh 11764193_at / RFU TMEM53 (11763286_at) / Fold change /veh TMEM53 (11763286_at) / RFU MAGEB2 (11727129_at) / Fold change /veh MAGEB2 (11727129_at) / RFU TMEM200A (11744735_a_at) / Fold change /veh TMEM200A (11744735_a_at) / RFU CCDC152 (11751479_a_at) / Fold change /veh CCDC152 (11751479_a_at) / RFU FAM211A (11726209_a_at) / Fold change /veh FAM211A (11726209_a_at) / RFU RGS16 (11746705_a_at) / Fold change /veh RGS16 (11746705_a_at) / RFU VCAN (11755009_s_at) / Fold change /veh VCAN (11755009_s_at) / RFU RHOB (11743442_s_at) / Fold change /veh RHOB (11743442_s_at) / RFU RGS16 (11720943_a_at) / Fold change /veh RGS16 (11720943_a_at) / RFU RGS16 (11720944_at) / Fold change /veh RGS16 (11720944_at) / RFU, VPS4B / Fold change vs veh, VPS4B / RFU, CREB1 / Fold change vs veh, CREB1 / RFU, DNAJC13 / Fold change vs veh, DNAJC13 / RFU, GNAQ / Fold change vs veh, GNAQ / RFU, CDK5R1 / Fold change vs veh, CDK5R1 / RFU, ZRANB3 / Fold change vs veh, ZRANB3 / RFU, CUL4A / Fold change vs veh, CUL4A / RFU, CCNY / Fold change vs veh, CCNY / RFU, UFL1 / Fold change vs veh, UFL1 / RFU, COG3 / Fold change vs veh, COG3 / RFU, DIAPH2 / Fold change vs veh, DIAPH2 / RFU, SKA2 / Fold change vs veh, SKA2 / RFU, AFF3 / Fold change vs veh, AFF3 / RFU, LMF1 / Fold change vs veh, LMF1 / RFU, IPO11 / Fold change vs veh, IPO11 / RFU, DFFB / Fold change vs veh, DFFB / RFU, FOXP1 / Fold change vs veh, FOXP1 / RFU, CARD8 / Fold change vs veh, CARD8 / RFU, STRN3 / Fold change vs veh, STRN3 / RFU, ADK / Fold change vs veh, ADK / RFU, RASSF2 / Fold change vs veh, RASSF2 / RFU, WIPF1 / Fold change vs veh, WIPF1 / RFU, LARP1B / Fold change vs veh, LARP1B / RFU, RASA1 / Fold change vs veh, RASA1 / RFU, RB1 / Fold change vs veh, RB1 / RFU, PPFIA1 / Fold change vs veh, PPFIA1 / RFU, MAT2A / Fold change vs veh, MAT2A / RFU, CCT5 / Fold change vs veh, CCT5 / RFU, WDR92 / Fold change vs veh, WDR92 / RFU, CUX1 / Fold change vs veh, CUX1 / RFU, TTC7A / Fold change vs veh, TTC7A / RFU, TMEM135 / Fold change vs veh, TMEM135 / RFU, DEPTOR / Fold change vs veh, DEPTOR / RFU, CPM / Fold change vs veh, CPM / RFU, DNAJB6 / Fold change vs veh, DNAJB6 / RFU, CACNA2D3 / Fold change vs veh, CACNA2D3 / RFU, DTX4 / Fold change vs veh, DTX4 / RFU, TFCP2 / Fold change vs veh, TFCP2 / RFU, GMCL1 /// GMCL1P1 / Fold change vs veh, GMCL1 /// GMCL1P1 / RFU, AEBP2 / Fold change vs veh, AEBP2 / RFU, SNHG1 /// SNORD22 /// SNORD25 /// SNORD26 /// SNORD27 /// SNORD28 /// SNORD29 /// SNORD31 / Fold change vs veh, SNHG1 /// SNORD22 /// SNORD25 /// SNORD26 /// SNORD27 /// SNORD28 /// SNORD29 /// SNORD31 / Fold change (Aza/veh), C12orf56 (ProbeSet 11735607_a_at) / Fold change (ACY-1035/veh), C12orf56 (ProbeSet 11735607_a_at) / Fold change (Aza/veh), FGFR1OP (ProbeSet 11751329_s_at) / Fold change (ACY-1035/veh), FGFR1OP (ProbeSet 11751329_s_at) / Fold change (Aza/veh), VPS36 (ProbeSet 11739960_a_at) / Fold change (ACY-1035/veh), VPS36 (ProbeSet 11739960_a_at) / RFU SYPL1 (11715823_x_at) / Fold change /veh SYPL1 (11715823_x_at) / RFU IGFBP7 (11715501_s_at) / Fold change /veh IGFBP7 (11715501_s_at) / RFU REEP3 (11722064_at) / Fold change /veh REEP3 (11722064_at) / RFU IGLL1 (11728026_x_at) / Fold change /veh IGLL1 (11728026_x_at): dose or concentration left out as unconfirmed
Conditions: MV-4-11 cells, 48 hours

Nc1ccc(-c2cccs2)cc1NC(=O)c1ccc2c(c1)cc(C1CC1)n2CCN1CCOCC1 [ACY-1035]
RFU VCAN (11757783_s_at): 8.50 RFU
